Assay results: PMC9276676, “Difluoromethylornithine (DFMO) and AMXT 1501 inhibit capsule biosynthesis in pneumococci” (Scientific Reports, 2022)

Assays:
Format in all cases: cell-based, Streptococcus pneumoniae
D39 = assay: Viability/replication at 1/2 MIC DFMO (CFU on blood agar); settings: 1/2 MIC DFMO (137 mM)
Procedure: (§1) S. pneumoniae serotypes 4 (TIGR4), 2 (D39), 19F (EF3030) and 3 (WU2) were cultured in Todd Hewitt broth supplemented with yeast extract (THY). Supplementation with DFMO ranging from 1.1 to 549 mM was carried out in triplicate in a 96-well plate and incubated at 37 °C and 5% CO2 in a Cytation™ 5 cell imaging multi-mode reader (BioTek, Winooski, VT). The change in optical density at 600 nm (OD600) was measured every hour for 24 h and used to determine the minimum inhibitory concentration (MIC) of DFMO. The optical density data was analyzed using GrowthRates 4.0 software. To determine whether DFMO at sub-MIC is bacteriostatic or lethal to pneumococcal cells, all strains were cultured in the presence or absence of 1/2 MIC DFMO. OD600 was measured every hour and CFU were enumerated on a blood agar plate (BAP) every 2 h over an 8 h incubation period.

EF3030 = assay: as above; settings: 1/2 MIC DFMO (137 mM)
Procedure: as §1

TIGR4 = assay: as above; settings: 1/2 MIC DFMO (137 mM)
Procedure: as §1

D39 (serotype 2) capsule = assay: Total capsular polysaccharide (CPS) immunoblot with densitometry
Procedure: (§2) S. pneumoniae strains were cultured with DFMO and AMXT 1501 at varying final concentrations of 1/2, 1/4, and 1/8 MIC to OD600 0.2–0.3 either individually or together to estimate any additive or synergistic effects. Capsular polysaccharides (CPS) were extracted and quantified in triplicate, as described previously[26] with slight modification. Briefly, CPS was extracted in a lysis buffer (4% deoxycholate, 50 µg/mL DNAse I and 50 µg/mL RNAse A) at 37 °C for 10 min and centrifuged at 18,000×g for 10 min. The supernatant (2 µL) was spotted on a 0.2-µm-pore-size nitrocellulose membrane (Thermo Fisher Scientific, Waltham, MA, USA) and oven dried at 60 °C for 15 min. The membranes were blocked and incubated with different types of antisera for capsule detection: antisera type- 4 (for TIGR4), 2 (for D39), polyclonal (for EF3030) and 3 (for WU2) (Cedarlane, Burlington, NC, USA). A conjugated polyclonal goat anti-rabbit IgG-HRP (Agilent Technologies, Santa Clara, CA, USA) was used for enhanced chemiluminescence (ECL) detection in all the strains (Thermo Fisher Scientific, Waltham, MA, USA) and scanned using a ChemiDoc XRS+ with Image Lab software (Bio-Rad, Hercules, CA, USA). Densitometry analysis of the immunoblot was done with NIH ImageJ software.
(§3) We determined the impact of varying concentrations of DFMO (1/8 to 1/2 MIC) on CPS in all serotypes (2, 4, 19F, and 3) used in this study. […] D39 was treated with 1/8 MIC DFMO alone, 1/4 MIC agmatine (Agm) alone, a combination of 1/8 MIC DFMO and 1/4 MIC Agm, and a control without DFMO or Agm. CPS was extracted as described in the previous section and immunoblot analysis with type 2 antisera was performed to detect CPS semi-quantitatively.

[1] = tested on: EF3030 (serotype 19F) capsule; assay: as above
Procedure: as §2, §3

[2] = tested on: TIGR4 (serotype 4) capsule; assay: as above
Procedure: as §2, §3

WU2 (serotype 3) capsule = assay: as above
Procedure: as §2, §3

## NCCC[C@](N)(C(=O)O)C(F)F [DFMO, α-difluoromethylornithine]
D39
  effect on viability (viability curves): some bacteriostatic effect
EF3030
  effect on viability (viability curves): some bacteriostatic effect
TIGR4
  effect on viability (viability curves): some bacteriostatic effect
D39 (serotype 2) capsule
  less capsule compared to untreated controls (densitometry of immunoblots): ~71%
D39 (serotype 2) capsule; D39, 1/8 MIC
  concentration that inhibits CPS: 34 mM
D39 (serotype 2) capsule; D39, DFMO 1/8 MIC 34 mM, agmatine 1/4 MIC 20 mM, AMXT 1501 1/2 MIC 7.4 µM, alone or with agmatine
  total CPS (capsule) by immunoblot: inhibits the capsule production
[1]
  less capsule compared to untreated controls (densitometry of immunoblots): ~84%
[1]; serotype 19F, DFMO less than 137 mM
  inhibition of CPS: failed to inhibit CPS
[2]
  less capsule compared to untreated controls (densitometry of immunoblots): approximately 85%
[2]; serotype 4, DFMO less than 137 mM
  inhibition of CPS: failed to inhibit CPS
WU2 (serotype 3) capsule
  less capsule compared to untreated controls (densitometry of immunoblots): ~39%
WU2 (serotype 3) capsule; serotype 3, DFMO less than 137 mM
  inhibition of CPS: failed to inhibit CPS
